Patent US12077608B2, “Stapled H2 pyrin peptides” (H. LEE MOFFITT CANCER CENTER AND RESEARCH INSTITUTE, INC., priority 2018, dated 2024)
Bridge positions count the residues as written; N and C are the ends. Square brackets hold non-standard residues; d marks the D form. Ends that are not written are not given here. Peptide text beside a SMILES is read from it. * marks the point of attachment. FITC = O=C1OC2(c3ccc(O)cc3Oc3cc(O)ccc32)c2ccc(NC(=S)*)cc21; S5 = C=CCCC[C@](C)(N)C(=O)O; Nle = CCCC[C@H](N)C(=O)O; βAla = NCCC(=O)O

Legend:
GST-ASC^PYD = target: T1, GST-ASC^PYD (Homo sapiens, UniProt Q9ULZ3); test: KD (μM) | GST-ASC^PYD
T1 construct: human ASC (residues 1-106) was cloned into a pGEX-4T1 vector; made in house; host or cells: E. coli BL21 DE3
T1 sequence (Q9ULZ3 1-106): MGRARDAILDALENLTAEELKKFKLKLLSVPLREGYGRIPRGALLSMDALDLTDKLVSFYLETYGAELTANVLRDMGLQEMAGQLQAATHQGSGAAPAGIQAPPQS
Source text: (§1) Table printed on a drawing sheet, FIG. 10
Head of the field: KD (μM) | GST-ASC^PYD
(§2) The patent's description of the figure: FIG. 10 is a table showing the results from a fluorescence anisotropy binding assay to determine the accurate binding affinities of stapled peptides fPOP1-H2 (SEQ ID NO: 2), fSAH-POP1-1 (SEQ ID NO: 1), fSAH-POP1-3 (SEQ ID NO: 3), fSAH-POP1-4 (SEQ ID NO: 4), fSAH-POP1-5 (SEQ ID NO: 5), fSAH-POP1-6 (SEQ ID NO: 6), fSAH-POP1-7 (SEQ ID NO: 7), fSAH-POP1-8 (SEQ ID NO: 8), fSAH-POP1-9 (SEQ ID NO: 9), fSAH-POP1-10 (SEQ ID NO: 10), fSAH-POP1-11 (SEQ ID NO: 11), fSAH-POP1-12 (SEQ ID NO: 12), fSAH-POP1-13 (SEQ ID NO: 13), fSAH-POP1-14 (SEQ ID NO: 14), fSAH-POP1-15 (SEQ ID NO: 15), fSAH-POP1-16 (SEQ ID NO: 16), fSAH-POP1-17 (SEQ ID NO: 17), fSAH-POP1-18 (SEQ ID NO: 18), fSAH-POP1-19 (SEQ ID NO: 19), fSAH-POP1-20 (SEQ ID NO: 20), fSAH-POP1-21 (SEQ ID NO: 21), fSAH-POP1-22 (SEQ ID NO: 22), fSAH-POP1-23 (SEQ ID NO: 23), fSAH-POP1-24 (SEQ ID NO: 24), fSAH-POP1-25 (SEQ ID NO: 25), fSAH-POP1-26 (SEQ ID NO: 26), fSAH-POP1-27 (SEQ ID NO: 27), fSAH-POP1-28 (SEQ ID NO: 28), fSAH-POP1-29 (SEQ ID NO: 29), fSAH-POP1-30 (SEQ ID NO: 30), fSAH-POP1-31 (SEQ ID NO: 31).
(§3) First copying reader's note: Second part of the same figure; in the structures S5, NL (N with lowered L) and NH2 carry lowered signs, a drawn bracket joins the two S5 residues (staple), and the SEQ ID NO column is printed outside the table frame.
Where the first naming reader finds the target: head: GST-ASC^PYD

GST-NLRP3^PYD = target: T2, GST-NLRP3^PYD (Homo sapiens, UniProt Q96P20); test: KD (μM) | GST-NLRP3^PYD
T2 construct: human NLRP3 (residues 3-110) was cloned into a pET-21b vector; made in house; host or cells: E. coli BL21 DE3
T2 sequence (Q96P20 3-110): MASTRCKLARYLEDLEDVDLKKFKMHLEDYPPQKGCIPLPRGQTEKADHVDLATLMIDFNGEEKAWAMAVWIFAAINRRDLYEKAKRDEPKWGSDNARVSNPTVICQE
Source text: as §1
Head of the field: KD (μM) | GST-NLRP3^PYD
as §2, §3
Where the first naming reader finds the target: head: GST-NLRP3^PYD

[1] = system: ASC speck formation in THP-1 ASC-GFP cells; test: ASC speck assay, live-cell imaging; type: cell-based, Human; conditions: for ASC speck formation remaining with inhibitor: 5 μM peptide, nigericin at 5 μM gives 38%
Protocol: ASC speck is a hallmark of inflammasome formation (Dick et al., 2016; Hoss et al., 2017) and observable by microscopy (Doyle et al., 2012; Stutz et al., 2013). THP-1 ASC-GFP cells stably expressing the ASC-GFP fusion protein (InvivoGen Catalog #: thp-ascgfp) were used to visualize the inhibitory effect of SAH-POP1-4 on ASC specks formation (Fernandes-Alnemri et al., 2007).
Experimental Procedure for ASC Speck Assay. THP1 ASC-GFP cells were seeded at 2×10^6/ml (0.7-1 mL) in RPMI1640 medium with 10% FCS in FluoroDish (FD35-100) and cultivated in the presence of 50 nM phorbol-12-myristate-13-acetate (PMA) for 24 h, then media was replaced by fresh media and incubated for 24 h. Then cells were stimulated with 200 ng/ml LPS from E. coli (sigma) for 3 h. The media was removed and replaced with serum-free medium (OptiMEM) containing DMSO (1:1,000), 20 μM inhibitors for 30 min. […] Control samples were incubated with media lacking LPS or nigericin. Then, ASC specks were tested by confocal microscopy SP8 (Leica Microsystems).
ASC speck is the hallmark of inflammasome formation and observable by microscopy. THP-1 ASC-GFP cells stably expressing the ASC-GFP fusion protein (InvivoGen Catalog #: thp-ascgfp) were used to visualize the inhibitory effect of SAH-POP1-17 on ASC specks formation (Fernandes-Alnemri et al., 2007). […] SAH-POP1-17 at 5 μM inhibited ASC speck formation to 4%, and SAH-POP1-18 at 5 μM inhibited ASC speck formation to 8%.

[2] = Circular dichroism (CD) secondary structure of the peptides; type: physicochemical; conditions: aqueous solution; 100 μM peptide in 10 mM potassium phosphate, 100 mM potassium fluoride buffer (pH=7.5)
Protocol: Circular dichroism (CD) was used to determine the secondary structure of the peptides. […] Hydrocarbon stapling promoted α-helix contents with SAH-POP1-4 and SAH-POP1-8 having the highest in aqueous solution.
CD spectra were recorded on an AVIV Model 215 Circular Dichroism Spectrometer. Each spectrum was collected with the wavelength between 190 to 260 nm, 0.5 nm increments, and 0.5 s averaging time using a 1-mm path length cell. The peptide concentration was 100 μM in 10 mM potassium phosphate and 100 mM potassium fluoride buffer (pH=7.5). The studied peptides were completely dissolved in this buffer. CD spectra were initially plotted as wavelength versus millidgree, the default output of the instrument. Once the precise peptide concentration was confirmed, the mean residue ellipticity [Θ] was calculated for the y-axis.

Row | Compound | Kd (GST-ASC^PYD) [µM] | Kd (GST-NLRP3^PYD) [µM] | further results
1 | CCCC[C@H](NC(=O)[C@H](Cc1c[nH]c2ccccc12)NC(=O)[C@H](CCC(N)=O)NC(=O)[C@]1(C)CCCC=CCCC[C@](C)(NC(=O)[C@H](CCC(N)=O)NC(=O)CCNC(=S)Nc2ccc3c(c2)C(=O)OC32c3ccc(O)cc3Oc3cc(O)ccc32)C(=O)N[C@@H](CO)C(=O)N[C@@H](CCCNC(=N)N)C(=O)N[C@@H](CCCNC(=N)N)C(=O)N1)C(=O)N[C@@H](CCC(N)=O)C(=O)N[C@@H](Cc1c[nH]c2ccccc12)C(=O)N[C@H](C(=O)N[C@@H](C)C(N)=O)[C@@H](C)O [fSAH-POP1-26] ({FITC-βAla}-Q[S5]SRR[S5]QW[Nle]QWTA-NH2; staple 2-6) | 5 ± 0.79 | 11 ± 1.1 | 
2 | CCCC[C@H](NC(=O)[C@H](Cc1c[nH]c2ccccc12)NC(=O)[C@H](CCC(N)=O)NC(=O)[C@]1(C)CCCC=CCCC[C@](C)(NC(=O)[C@H](CCC(N)=O)NC(=O)CCNC(=S)Nc2ccc3c(c2)C(=O)OC32c3ccc(O)cc3Oc3cc(O)ccc32)C(=O)N[C@@H](CC(C)C)C(=O)N[C@@H](CCCNC(=N)N)C(=O)N[C@@H](CCCNC(=N)N)C(=O)N1)C(=O)N[C@@H](CC(C)C)C(=O)NCC(=O)N[C@H](C(=O)N[C@@H](C)C(N)=O)[C@@H](C)O [fSAH-POP1-28] ({FITC-βAla}-Q[S5]LRR[S5]QW[Nle]LGTA-NH2; staple 2-6) | 7.2 ± 1.1 | 7.7 ± 1.5 | 
3 | SAH-POP1-18: Stapled peptide synthesized by FIG. 11, SEQ ID NO: 45 (Q[S5]LRR[S5]QWFLWTA-NH2; staple 2-6; N-terminus assumed; SMILES CC(C)C[C@H](NC(=O)[C@H](Cc1ccccc1)NC(=O)[C@H](Cc1c[nH]c2ccccc12)NC(=O)[C@H](CCC(N)=O)NC(=O)[C@]1(C)CCCC=CCCC[C@](C)(NC(=O)[C@@H](N)CCC(N)=O)C(=O)N[C@@H](CC(C)C)C(=O)N[C@@H](CCCNC(=N)N)C(=O)N[C@@H](CCCNC(=N)N)C(=O)N1)C(=O)N[C@@H](Cc1c[nH]c2ccccc12)C(=O)N[C@H](C(=O)N[C@@H](C)C(N)=O)[C@@H](C)O) |  |  | ASC speck formation remaining with inhibitor [1]: 8%
4 | POP1-H2: Reference peptide, unstapled, amino acid sequence EELKKFKMKLGTV [reference compound] |  |  | α-helical structure / α-helix contents by circular dichroism [2]: does not exhibit α-helical structure
5 | CO[C@@H]1C[C@@H](C[C@H]2CC[C@H](C)[C@H]([C@@H](C)C(=O)O)O2)O[C@]2(O[C@](C)([C@H]3CC[C@@](C)([C@@H]4O[C@@H]([C@H]5O[C@@](O)(CO)[C@H](C)C[C@@H]5C)C[C@@H]4C)O3)C[C@H]2C)[C@@H]1C [nigericin, reference compound] |  |  | activation of ASC speck formation ([1]; nigericin at 2 μM): activated ASC speck formation; ASC speck formation activated ([1]; nigericin at 5 μM, no inhibitor): 38%
6 | CCCC[C@H](NC(=O)[C@H](Cc1c[nH]c2ccccc12)NC(=O)[C@H](CCCCN)NC(=O)[C@]1(C)CCCC=CCCC[C@](C)(NC(=O)[C@H](CCC(N)=O)NC(=O)CCNC(=S)Nc2ccc3c(c2)C(=O)OC32c3ccc(O)cc3Oc3cc(O)ccc32)C(=O)N[C@@H](CO)C(=O)N[C@@H](CCCNC(=N)N)C(=O)N[C@@H](CCCNC(=N)N)C(=O)N1)C(=O)N[C@@H](CCC(N)=O)C(=O)N[C@@H](Cc1c[nH]c2ccccc12)C(=O)N[C@H](C(=O)N[C@@H](C)C(N)=O)[C@@H](C)O [fSAH-POP1-27] ({FITC-βAla}-Q[S5]SRR[S5]KW[Nle]QWTA-NH2; staple 2-6) | 3.9 ± 0.68 | 7.9 ± 1.1 | 
7 | SAH-POP1-17: Stapled peptide synthesized by FIG. 11, SEQ ID NO: 44 (QXLRRXQWXLWTA; hydrocarbon staple; (2)..(2) X= S5=(S)-2-(4-pentenyl)alanineS5, the two Xs are also directly connected by a double bond; (6)..(6) X= S5=(S)-2-(4-pentenyl)alanineS5, the two Xs are also directly connected by a double bond; (9)..(9) X= NL = norleucine) |  |  | ASC speck formation remaining with inhibitor [1]: 4%

Continued, in another order:

Row | Kd (GST-ASC^PYD) [µM] | Kd (GST-NLRP3^PYD) [µM] | Compound | further results
8 | 7.5 ± 1.1 | 6.7 ± 1.2 | CCCC[C@H](NC(=O)[C@H](Cc1c[nH]c2ccccc12)NC(=O)[C@H](CCC(N)=O)NC(=O)[C@]1(C)CCCC=CCCC[C@](C)(NC(=O)[C@H](CCC(N)=O)NC(=O)CCNC(=S)Nc2ccc3c(c2)C(=O)OC32c3ccc(O)cc3Oc3cc(O)ccc32)C(=O)N[C@@H](CC(C)C)C(=O)N[C@@H](CCCNC(=N)N)C(=O)N[C@@H](CCCNC(=N)N)C(=O)N1)C(=O)N[C@@H](CC(C)C)C(=O)N[C@@H](CC(N)=O)C(=O)N[C@H](C(=O)N[C@@H](C)C(N)=O)[C@@H](C)O [fSAH-POP1-30] ({FITC-βAla}-Q[S5]LRR[S5]QW[Nle]LNTA-NH2; staple 2-6) | 
9 | 7.8 ± 1.1 | 4.7 ± 0.54 | CCCC[C@H](NC(=O)[C@H](Cc1c[nH]c2ccccc12)NC(=O)[C@H](CCC(N)=O)NC(=O)[C@]1(C)CCCC=CCCC[C@](C)(NC(=O)[C@H](CCC(N)=O)NC(=O)CCNC(=S)Nc2ccc3c(c2)C(=O)OC32c3ccc(O)cc3Oc3cc(O)ccc32)C(=O)N[C@@H](CC(C)C)C(=O)N[C@@H](CCCNC(=N)N)C(=O)N[C@@H](CCCNC(=N)N)C(=O)N1)C(=O)N[C@@H](CC(C)C)C(=O)N[C@@H](CO)C(=O)N[C@H](C(=O)N[C@@H](C)C(N)=O)[C@@H](C)O [fSAH-POP1-31] ({FITC-βAla}-Q[S5]LRR[S5]QW[Nle]LSTA-NH2; staple 2-6) | 
10 | 5.5 ± 0.69 | 6 ± 0.92 | CCCC[C@H](NC(=O)[C@H](Cc1c[nH]c2ccccc12)NC(=O)[C@H](CCC(N)=O)NC(=O)[C@]1(C)CCCC=CCCC[C@](C)(NC(=O)[C@H](CCC(N)=O)NC(=O)CCNC(=S)Nc2ccc3c(c2)C(=O)OC32c3ccc(O)cc3Oc3cc(O)ccc32)C(=O)N[C@@H](CC(C)C)C(=O)N[C@@H](CCCNC(=N)N)C(=O)N[C@@H](CCCNC(=N)N)C(=O)N1)C(=O)N[C@@H](CC(C)C)C(=O)N[C@@H](CC(=O)O)C(=O)N[C@H](C(=O)N[C@@H](C)C(N)=O)[C@@H](C)O [fSAH-POP1-29] ({FITC-βAla}-Q[S5]LRR[S5]QW[Nle]LDTA-NH2; staple 2-6) | 
